Measurements: ChEMBL document CHEMBL4665661, “Design, synthesis, and biological activity evaluation of (-)-6-O-desmethylantofine analogues as potent anti-cancer agents” (Bioorg Med Chem, 2019)
Calls of active or inactive are those of the source. The rule behind the calls is not given here.

Assays:
[1] = system: Hep 3B2; test: Antiproliferative activity against human Hep3B cells incubated for 72 hrs by MTT assay; assay type: functional, cell-based
[2] = system: HCT-116; test: Antiproliferative activity against human HCT-116 cells incubated for 72 hrs by MTT assay; assay type: functional, cell-based
[3] = system: MCF7; test: Antiproliferative activity against human MCF7 cells incubated for 72 hrs by MTT assay; assay type: functional, cell-based
[4] = system: SK-HEP1; test: Antiproliferative activity against human SK-HEP 1 cells incubated for 72 hrs by MTT assay; assay type: functional, cell-based
[5] = system: BEL-7404 tumor cell line; test: Antiproliferative activity against human BEL-7404 cells incubated for 72 hrs by MTT assay; assay type: functional, cell-based
[6] = system: HeLa; test: Antiproliferative activity against human HeLa cells incubated for 72 hrs by MTT assay; assay type: functional, cell-based
[7] = system: Bel-7402; test: Induction of apoptosis in human Bel-7402 cells assessed as viable cells at 0.1 uM after 72 hrs by FITC-annexin V/propidium iodide-double staining based flow cytometry (reference value: 93.6%); assay type: functional; settings: read-out: Activity
[8] = system: Bel-7402; test: Effect on DNA damage marker protein level in human Bel-7402 cells assessed as phosphorylation of CHK2 at Thr68[…] at 100 fold antiproliferative IC50 after 1 hr by Western blot analysis; assay type: functional, cell-based
[9] = system: Bel-7402; test: Inhibition of DNA synthesis in human Bel-7402 cells assessed as Brdu positive cells at 0.1 uM measured after 1 hr by propidium iodide staining-based BrdU incorporation assay (reference value: 29.8%); assay type: functional; design: scale not given: the % may be the effect or the level left; settings: time 30 min, 0.5 h
[10] = system: Bel-7402; test: Induction of apoptosis in human Bel-7402 cells assessed as necrotic cells at 0.01 uM after 72 hrs by FITC-annexin V/propidium iodide-double staining based flow cytometry (reference value: 2.86%); assay type: functional
[11] = system: MDA-MB-231; test: Antiproliferative activity against human MDA-MB-231 cells incubated for 72 hrs by MTT assay; assay type: functional, cell-based
[12] = system: SK-OV-3; test: Antiproliferative activity against human SK-OV-3 cells incubated for 72 hrs by MTT assay; assay type: functional, cell-based
[13] = system: Bel-7402; test: Induction of apoptosis in human Bel-7402 cells assessed as necrotic cells at 0.1 uM after 72 hrs by FITC-annexin V/propidium iodide-double staining based flow cytometry (reference value: 2.86%); assay type: functional
[14] = system: Bel-7402; test: Inhibition of DNA synthesis in human Bel-7402 cells assessed as Brdu positive cells at 1 uM measured after 1 hrs by propidium iodide staining-based BrdU incorporation assay (reference value: 29.8%); assay type: functional; design: scale not given: the % may be the effect or the level left; settings: time 30 min, 0.5 h
[15] = system: Zip177; test: Antiproliferative activity against human […] cells incubated for 72 hrs by MTT assay; assay type: functional, cell-based
[16] = system: SMMC-7721; test: Antiproliferative activity against human SMMC-7721 cells incubated for 72 hrs by MTT assay; assay type: functional, cell-based
[17] = system: HepG2; test: Antiproliferative activity against human HepG2 cells incubated for 72 hrs by MTT assay; assay type: functional, cell-based
[18] = system: Huh-7; test: Antiproliferative activity against human HuH7 cells incubated for 72 hrs by MTT assay; assay type: functional, cell-based
[19] = system: SU-DHL-6; test: Antiproliferative activity against human SU-DHL-6 cells incubated for 72 hrs by MTT assay; assay type: functional, cell-based
[20] = system: KATO III; test: Antiproliferative activity against human […] cells incubated for 72 hrs by MTT assay; assay type: functional, cell-based
[21] = system: HL-60; test: Antiproliferative activity against human HL-60 cells after 72 hrs by MTT assay; assay type: functional, cell-based; settings: HL-60, 72 h
[22] = system: Bel-7402; test: Induction of apoptosis in human Bel-7402 cells assessed as late apoptotic cells at 1 uM after 72 hrs by FITC-annexin V/propidium iodide-double staining based flow cytometry (reference value: 3.06%); assay type: functional
[23] = system: Bel-7402; test: Induction of apoptosis in human Bel-7402 cells assessed as early apoptotic cells at 1 uM after 72 hrs by FITC-annexin V/propidium iodide-double staining based flow cytometry (reference value: 0.65%); assay type: functional
[24] = system: SMMC-7721; test: Cell cycle arrest in human SMMC-7721 cells assessed as inhibition of DNA synthesis by measuring increase in cell population at S phase at 20 to 200 nM after 24 hrs by RNase A/propidium iodide staining-based flow cytometric analysis; assay type: functional
[25] = system: KB; test: Antiproliferative activity against human KB cells incubated for 72 hrs by MTT assay; assay type: functional, cell-based
[26] = system: Bel-7402; test: Induction of apoptosis in human Bel-7402 cells assessed as necrotic cells at 1 uM after 3 days by […]; assay type: functional; settings: time 3 day

Q: With COc1cc2c3c(c4ccc(OCC#N)cc4c2cc1OC)CN1CCC[C@@H]1C3 as the molecule, how does the inhibition [1] read?
A: Active

Q: What about the inhibition [2] of the same molecule?
A: Active

Q: What about the inhibition [3] of the same molecule?
A: Active

Q: What about the inhibition [4] of the same molecule?
A: Active

Q: And the inhibition [5]?
A: Active

Q: And the inhibition [6]?
A: Active

Q: What about the viability at 0.1 µM [7] of the same molecule?
A: 87.8%

Q: And the Activity [8]?
A: inactive

Q: And the Activity [9]?
A: 13%

Q: What about the Activity [10] of the same molecule?
A: 1.59%

Q: What about the inhibition [11] of the same molecule?
A: Active

Q: And the inhibition [12]?
A: Active

Q: What about the Activity [13] of the same molecule?
A: 3.09%

Q: And the Activity [14]?
A: 8.15%

Q: What about the inhibition [15] of the same molecule?
A: Active

Q: And the inhibition [16]?
A: Active

Q: What about the inhibition [17] of the same molecule?
A: Active

Q: What about the inhibition [18] of the same molecule?
A: Active

Q: And the inhibition [19]?
A: Active

Q: What about the inhibition [20] of the same molecule?
A: Active

Q: What about the IC50 [21] of the same molecule?
A: 44 nM

Q: What about the Activity [22] of the same molecule?
A: 15.5%

Q: What about the Activity [23] of the same molecule?
A: 1.6%

Q: And the Activity [24]?
A: Active

Q: What about the inhibition [25] of the same molecule?
A: Active

Q: What about the Activity [26] of the same molecule?
A: 20%
